According to US6794544B2, “Method for the preparation of tetrahydrobenzothiepines” (Pharmacia Corporation, priority 2000, dated 2004):

Test: Water uptake experiments (Dynamic Vapor Sorption, water sorption/desorption isotherms)
Type: physicochemical
Protocol: A dry sample of the crystalline form having a melting point or a decomposition point of about 278° C. to about 285° C. (i.e., Form 11) typically gains less than about 1% of its own weight when equilibrated under 80% relative humidity (RH) air at 25° C. […] For the present purposes, the term “essentially 0% RH” means less than about 1% RH. The term “equilibrated” means that the change in weight of a sample over time at a given relative humidity is less than 0.0003% ((dm/dt)/m0×100, where m is mass in mg, m0 is initial mass, and t is time in minutes).
Water sorption experiments are performed on a Dynamic Vapor Sorption (DVS) apparatus (DVS-1000 manufactured by Surface Measurements Systems, Inc.). Experiments are performed at 25° C. by initially drying the material of interest (about 10 mg sample) from 30% relative humidity (RH) (ambient room condition) to about 9% RH in a stepwise fashion (10% RH step) by purging with dry nitrogen until no further weight change was observed. The samples are then exposed to a stepwise (10% RH steps) increase in RH from about 0 to about 90% RH. Each successive step is initiated when the change in weight over time at the relative humidity was less than 0.0003% ((dm/dt)/m0×100, where m is mass in mg, m0 is initial mass, and t is time in minutes). […] The data are collected on a computer and analyzed using SMS′ proprietary MS-Excel macro interface software.

weight gain of the sample (of its own weight) (dried at essentially 0% RH at about 25° C. under dry nitrogen, then equilibrated under about 80% RH air at about 25° C.): less than 1%
hygroscopicity (dry sample equilibrated under 80% RH air at 25° C.): essentially nonhygroscopic
SMILES: CCCCC1(CCCC)CS(=O)(=O)c2ccc(N(C)C)cc2[C@@H](c2ccc(OCc3ccc(C[N+]45CCN(CC4)CC5)cc3)cc2)[C@H]1O [Form II, (4R,5R)-1-((4-(4-(3,3-dibutyl-7-(dimethylamino)-2,3,4,5-tetrahydro-4-hydroxy-1,1-dioxido-1-benzithiepin-5-yl)phenoxy)methyl)phenyl)methyl-4-aza-1-azoniabicyclo[2.2.2]octane chloride]
